“Also recorded” adds a separate entry of the source. Where a name gives a salt, the structure may show the parent alone.
What was measured:
THP-1 cells [1] = assay: Chase assay of Aβ catabolism, Simoa immunoassays of intracellular Aβ fragments (Example 1); format: cell-based; details: TPA-differentiated THP-1; 100 ng/ml Abeta40 2 h, 4 hours chase; 100 nM Bafilomycin, 100 nM Rapamycin, 100 μM Neprilysin inhibitor, 200 nM BACE inhibitor, 1 μM IDE inhibitor; vs 4 hour chase
Description: To adjust for inter-day variations in measurements for the different experiments, values were normalized using the baseline condition as the reference for each day of experiments using the following formula: [(biomarker value/mean biomarker value)[…])].
Statistical analyses were carried out with one-way ANOVA models. If a significant (p<0.05) omnibus (F-test) ANOVA was shown, planned comparisons according to our hypotheses were carried out. This included a main comparison between the reference condition and experimental conditions (endolysosomal inhibitors and autophagosome activators). The Figures thus indicate within each bar the percentage change, and associated statistical significance (p-value) or lack thereof (n.s.), as compared to the reference condition (100%) (i.e. the main comparison). For some experiments (FIGS. 4, 5 and 7), additional comparisons between experimental conditions were conducted in accordance with hypotheses. Significant between-group differences for these comparisons are shown with horizontal bars with the associated statistical significance (p-value), or lack thereof (n.s.).
Aβ catabolism and detoxification, and the effect of example inhibitors and activators thereon, was measured using antibodies specific for intracellular Aβ mid-domain peptides, i.e. catabolism products. In particular, inhibition of endolysosomal activity is expected to reduce degradation and increase concentrations of species, here studied with Bafilomycin, which blocks V-ATPase and inhibits acidification of endolysosomes, thereby inhibiting endolysosomal enzyme activities. Addition of inhibitors of endolysosomal enzymes Neprilysin (Saido 2013) and Insulin Degradation Enzymes are expected to have similar effects (Jha, Jha et al. 2015, Sikanyika, Parkington et al. 2019), whereas BACE1 is involved both in Aβ generation and […] (Vassar, Kovacs et al. 2009, Liebsch, Kulic et al. 2019). Enhancing macroautophagy using Rapamycin is also expected to increase Aβ catabolism (FIG. 3; Spilman, Podlutskaya et al. 2010, Malik, Maddison et al. 2019)
Immunoassays were developed on the single molecule array (Simoa) platform (Quanterix, US) using proprietary antibodies directed against different epitopes of the amyloid β protein (Shown in FIG. 1; SEQ ID NOs: 3-5). The Aβx-40/42 assay used a 40-42 end-specific sheep monoclonal AB.4D7 (Bioventix plc, UK) as the capture antibody, and a sheep monoclonal AB.2A9 (Bioventix plc, UK) with a mid-domain epitope (SEQ ID NO: 7) as the detection antibody. The 40-42 end-specific antibody was raised against the epitope shown in SEQ ID NO: 5, and binds the C-terminal of both Aβ1-42 (SEQ ID NO: 1) and Aβ1-40 (SEQ ID NO: 2). The Aβ20-x assay used the same AB.4D7 antibody as the capture antibody, and the highly specific 20-cut point sheep monoclonal antibody, ABNT.2B8 (Bioventix plc, UK) as the detection antibody. For the Aβx-34 assay, AB.2A9 was used as the capture antibody and an anti-complex antibody, BVX.33420/H3 (Bioventix plc, UK), which preferentially binds a fragment having the C-terminal of SEQ ID NO: 6, was used as the detection antibody, ensuring mid-domain x-34 specificity.
Chase Assays THP-1 cells were differentiated toward macrophages by a 48 hour treatment with 100 nM TPA (12-O-tetradecanoylphorbol-13-acetate). Media was replaced with fresh medium with or without modulators of the autophagic/endolysosomal system: 100 nM Bafilomycin, 100 nM Rapamycin, 100 μM Neprilysin inhibitor, 200 nM BACE inhibitor, or 1 μM IDE inhibitor, or a triple combination of the enzyme inhibitors Neprilysin inhibitor, BACE inhibitor and IDE inhibitor. The cells were incubated for 1 hour before adding 100 ng/ml Abeta40 to the cells. Cells were further incubated for 2 hours before removing Abeta40 and a continued 4 hours chase with or without the respective modulators. Cells were washed before adding lysis buffer. Lysates were kept at −80° C. until analysis.

THP-1 cells [2] = assay: Clearance assay on a background of LPS inflammatory activation, Mesoscale immunoassay (Example 4); format: cell-based; details: with LPS, 16 h; Aβ1-40 2 h; 4 h chase; reference LPS+Aβ40 4 hour chase
Description: The immunoassay was set up on a Mesoscale platform. THP-1 cells were differentiated towards phagocytic monocytes/macrophages during a 48 h incubation with 12-O-tetra-decanoylphorbol-13-acetate (TPA). Media were replaced with fresh medium containing LPS alone or LPS together with DHA or NS1738 or combination of DHA and NS1738, for an overnight incubation (16 h). The marker protein (Aβ1-40) was added to the cells for an additional 2 h incubation. Media were replaced with fresh medium without any additives and the cells were further incubated for a 4 h chase period. The cells were kept cold, media removed, and the cells washed with cold PBS. Lysis buffer containing protease inhibitors and sodium dodecyl sulfate (SDS) was added to the cells. After lysis, the cells were scraped and transferred to tubes and kept in a −80° C. freezer. Lysates were sonicated and treated with DNase before analysis on the degradation assays.

THP-1 cells [3] = assay: Chase assay with proposed AD interventions, Mesoscale immunoassay (Example 2); format: cell-based; details: 16 hours DHA (100 μM) and/or NS1738 (10 μM); Aβ1-40 500 ng/ml; reference Aβ40 4 hour chase
Description: An immunoassay was set up on a Mesoscale platform using the same antibodies as, and a similar method to, Example 1. Cells were incubated overnight (16 hours) with DHA (100 μM) and/or NS1738 (10 μM). Aβ1-40 was added at a concentration of 500 ng/ml, and removed from the media before the 4 hour chase. DHA and NS1738 were removed from the media during the 4 hour chase.

[4] = tested on: cells in an innate immune model system; details: DHA treatment of cells in an innate immune model system; cited from earlier work
[5] = biological target: Aβ20-34, mid-domain fragment of Aβ1-42 and Aβ1-40; assay: monocyte lysate pool + 12 pg/ml Aβ20-34 pre-incubated with the antibody, then Simoa Aβx-34 immunoassay (untreated 13.8 pg/ml)
[6] = biological target: Aβ20-34, mid-domain fragment of Aβ1-42 and Aβ1-40; assay: monocyte lysate pool + 12 pg/ml Aβ20-34 pre-incubated with the antibody, then Simoa Aβx-34 immunoassay

| Compound | intracellular Aβ20-x level (THP-1 cells [1]) | intracellular Aβx-34 level (THP-1 cells [1]) | intracellular Aβx-40/42 level (THP-1 cells [1]) | other results |
| --- | --- | --- | --- | --- |
| NC1=N[C@@]2(c3cc(NC(=O)c4ccc(F)cn4)ccc3F)COC[C@H]2CS1 [BACE inhibitor, LY2886721] | increases | no effect | no effect | – |
| CO/C1=C\C(C)=C\[C@@H](C)[C@@H](O)[C@@H](C)C/C(C)=C/C=C/[C@H](OC)[C@@H]([C@@H](C)[C@@H](O)[C@H](C)[C@@]2(O)C[C@@H](O)[C@H](C)[C@@H](C(C)C)O2)OC1=O [Bafilomycin, Bafilomycin A1] | significantly increases | non-significantly increases | significantly increases | – |
| CC/C=C\C/C=C\C/C=C\C/C=C\C/C=C\C/C=C\CCC(=O)O [DHA, (4Z, 7Z, 10Z, 13Z, 16Z, 19Z)-4,7, 10, 13, 16, 19-docosahexaenoic acid] | – | – | – | intracellular Aβ20-x level (THP-1 cells [2]): continue to have an effect; intracellular Aβx-34 level (THP-1 cells [2]): continue to have an effect; intracellular Aβx-40 level (THP-1 cells [2]): continue to have an effect; intracellular Aβx-34 level (THP-1 cells [3]): reduces the amount; also recorded: decreased; Aβ1-42 phagocytosis and degradation [4]: increase |
| NCCCC[C@@H]1NC(=O)/C=C/C(=O)N[C@H](C(N)=O)CCCCNC(=O)[C@@H](Cc2ccc(C(=O)c3ccccc3)cc2)NC(=O)[C@H](CC2CCCCC2)NC1=O [IDE inhibitor, 6bK] | increases | no effect | no effect | – |
| O=C(Nc1cc(Cl)ccc1O)Nc1cc(C(F)(F)F)ccc1Cl [NS1738] | – | – | – | intracellular Aβ20-x level (THP-1 cells [2]): continue to have an effect; intracellular Aβx-34 level (THP-1 cells [2]): continue to have an effect; intracellular Aβx-40 level (THP-1 cells [2]): continue to have an effect; intracellular Aβx-34 level (THP-1 cells [3]): reduces the amount; also recorded: decreased |
| CC(C)C[C@H](NP(=O)(O)O[C@@H]1O[C@@H](C)[C@H](O)[C@@H](O)[C@H]1O)C(=O)N[C@@H](Cc1c[nH]c2ccccc12)C(=O)O [Neprilysin inhibitor, Phosphoramidon disodium salt] | increases | unchanged | increases | – |
| unspecific antibody LB509 | – | – | – | concentration left after depletion [5]: 11.1 pg/mL; Percent of untreated [6]: 80% |

— patent US20240168011A1, “CLEARANCE ASSAY” (Akershus Universitetssykehus HF, priority 2021, published 2024)
